Drawing on patent US9765091B2, “Tetrahydropyrazolo [3,4-b] azepine derivatives and their use as allosteric modulators of metabotropic glutamate receptors” (Addex Pharma S.A., priority 2010, dated 2017), this text covers melting point and EC50 for 13 compounds.

T1 sequence (Q14833 33-912): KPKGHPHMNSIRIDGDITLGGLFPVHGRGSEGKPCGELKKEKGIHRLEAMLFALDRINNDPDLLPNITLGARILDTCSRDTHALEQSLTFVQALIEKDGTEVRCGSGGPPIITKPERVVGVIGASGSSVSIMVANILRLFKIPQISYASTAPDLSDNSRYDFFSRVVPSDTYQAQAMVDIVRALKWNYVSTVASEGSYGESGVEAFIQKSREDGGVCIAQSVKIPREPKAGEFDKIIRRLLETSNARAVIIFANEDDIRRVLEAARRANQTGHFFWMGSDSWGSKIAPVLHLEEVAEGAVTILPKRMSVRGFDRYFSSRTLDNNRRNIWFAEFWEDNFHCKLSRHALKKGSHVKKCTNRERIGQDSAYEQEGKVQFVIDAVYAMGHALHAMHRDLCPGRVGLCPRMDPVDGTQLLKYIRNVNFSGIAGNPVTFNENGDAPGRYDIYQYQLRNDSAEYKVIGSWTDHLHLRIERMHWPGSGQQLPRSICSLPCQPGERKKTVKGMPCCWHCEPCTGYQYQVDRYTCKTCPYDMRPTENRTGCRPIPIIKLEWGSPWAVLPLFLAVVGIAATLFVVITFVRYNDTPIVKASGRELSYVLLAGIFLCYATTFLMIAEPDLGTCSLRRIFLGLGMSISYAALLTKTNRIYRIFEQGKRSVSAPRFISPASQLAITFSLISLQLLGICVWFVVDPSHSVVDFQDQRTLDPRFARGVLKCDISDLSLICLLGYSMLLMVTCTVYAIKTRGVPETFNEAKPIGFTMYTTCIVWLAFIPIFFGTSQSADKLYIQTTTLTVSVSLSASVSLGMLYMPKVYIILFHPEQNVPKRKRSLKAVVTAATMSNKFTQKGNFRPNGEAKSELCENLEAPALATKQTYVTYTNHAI

Test system in one data set: not given
Experiment: not given
Settings: not given
For orientation: melting point means the temperature of the solid-liquid transition. As for `Cc1ccnc(Nc2nc3c(s2)CCN(C(C)C)c2n[nH]cc2-3)n1` [Compound 1-5, 6-Isopropyl-N-(4-methylpyrimidin-2-yl)-4,5,6,8-tetrahydropyrazolo[3,4-b]thiazolo[4,5-d]azepin-2-amine], the melting point came out at 247 °C.

Another data set addresses T1, human mGluR4 (Homo sapiens, UniProt Q14833).
T1 construct: expressed in transfected cells
The data set is described as follows: Fluorescent cell based Ca2+ mobilization assay (FLIPR) on HEK-293 cells expressing human mGluR4. As to conditions: positive allosteric modulation, HEK-293 cells expressing hmGluR4, stimulated by EC25 glutamate; mean of at least three independent experiments in duplicate; read-out: Ca^2+ Flux* (mean EC50). An excerpt:
mGluR4 Assay on HEK-Expressing Human mGluR4
The compounds of the present invention are positive allosteric modulators of mGluR4 receptor. Their activity was examined on recombinant human mGluR4a receptors by detecting changes in intracellular Ca^2+ concentration, using the fluorescent Ca^2+-sensitive dye Fluo4-(AM) and a Fluorometric Imaging Plate Reader (FLIPR, Molecular Devices, Sunnyvale, Calif.).
The cDNA encoding the human metabotropic glutamate receptor (hmGluR4), (accession number NM_000841.1, NCBI Nucleotide database browser), was subcloned into an expression vector containing also the hygromycin resistance gene. In parallel, the cDNA encoding a G protein allowing redirection of the activation signal to intracellular calcium flux was subcloned into a different expression vector containing also the puromycin resistance gene. Transfection of both these vectors into HEK293 cells with PolyFect reagent (Qiagen) according to supplier's protocol, and hygromycin and puromycin treatment allowed selection of antibiotic resistant cells which had integrated stably one or more copies of the plasmids. Positive cellular clones expressing hmGluR4 were identified in a functional assay measuring changes in calcium fluxes in response to glutamate or selective known mGluR4 orthosteric agonists and antagonists. HEK-293 cells expressing hmGluR4 were maintained in media containing DMEM, dialyzed Fetal Calf Serum (10%), Glutamax™ (2 mM), Penicillin (100 units/mL), Streptomycin (100 μg/mL), Geneticin (100 μg/mL) and Hygromycin-B (40 μg/mL) and puromycin (1 μg/mL) at 37° C./5% CO2.
Human mGluR4 HEK-293 cells were plated out 24 hours prior to FLIPR^384 assay in black-walled, clear-bottomed, poly-L-ornithine-coated 384-well plates at a density of 25,000 cells/well in a glutamine/glutamate free DMEM medium containing foetal bovine serum (10%), penicillin (100 units/mL) and streptomycin (100 μg/mL) at 37° C./5% CO2.
On the day of the assay, the medium was aspirated and the cells were loaded with a 3 μM solution of Fluo4-AM (LuBioScience, Lucerne, Switzerland) in 0.03% pluronic acid. After 1 hour at 37° C./5% CO2, the non incorporated dye was removed by washing cell plate with the assay buffer and the cells were left in the dark at room temperature for […] before testing. All assays were performed in a pH 7.4 buffered-solution containing 20 mM HEPES, 143 mM NaCl, 6 mM KCl, 1 mM MgSO4, 1 mM CaCl2, 0.125 mM sulfapyrazone and 0.1% glucose.
After 10 s of basal fluorescence recording, various concentrations of the compounds of the invention were added to the cells. Changes in fluorescence levels were first monitored for 180 s in order to detect any agonist activity of the compounds. Then the cells were stimulated by an EC25 glutamate concentration for an additional 110 s in order to measure enhancing activities of the compounds of the invention. EC25 glutamate concentration is the concentration giving 25% of the maximal glutamate response.
The concentration-response curves of representative compounds of the present invention were generated using the Prism GraphPad software (Graph Pad Inc, San Diego, USA). The curves were fitted to a four-parameter logistic equation: (Y=Bottom+(Top−Bottom)/(1+10^((Log EC50−X)*Hill Slope) allowing the determination of EC50 values.
The Table 4 below represents the mean EC50 obtained from at least three independent experiments of selected molecules performed in duplicate.
For orientation: A change in cytosolic calcium serves as a functional read-out for many receptors and channels.
In general, EC50 refers to the concentration that produces a half-maximal response. On to `Cc1ccnc(Nc2nc3c(s2)CCN(C(C)C)c2n[nH]cc2-3)n1` [Compound 1-5, 6-Isopropyl-N-(4-methylpyrimidin-2-yl)-4,5,6,8-tetrahydropyrazolo[3,4-b]thiazolo[4,5-d]azepin-2-amine], for which the EC50 is under 100 nM. The same measure, in the same setting: as for `OCCN1CCc2sc(Nc3ncc(F)cn3)nc2-c2c[nH]nc21` [Compound 1-20, 2-(2-(5-Fluoropyrimidin-2-ylamino)-4,5-dihydropyrazolo[3,4-b]thiazolo[4,5-d]azepin-6(8H)-yl)ethanol], the figure is 100 to 1000 nM. The same measure, in the same setting: then `Fc1cnc(Nc2nc3c(s2)CCN(CC2CCCC2)c2n[nH]cc2-3)nc1` [Compound 1-36, 6-(Cyclopentylmethyl)-N-(5-fluoropyrimidin-2-yl)-4,5,6,8-tetrahydropyrazolo[3,4-b]thiazolo[4,5-d]azepin-2-amine], with under 100 nM; and `Fc1cnc(Nc2nc3c(s2)CCN(Cc2ccccn2)c2n[nH]cc2-3)nc1` [Compound 1-26, N-(5-Fluoropyrimidin-2-yl)-6-(pyridin-2-ylmethyl)-4,5,6,8-tetrahydropyrazolo[3,4-b]thiazolo[4,5-d]azepin-2-amine], with under 100 nM; and `Cc1cccc(CN2CCc3sc(Nc4ncc(F)cn4)nc3-c3cn[nH]c32)n1` [Compound 1-70, N-(5-Fluoropyrimidin-2-yl)-6-((6-methylpyridin-2-yl)methyl)-4,5,6,7-tetrahydropyrazolo[3,4-b]thiazolo[4,5-d]azepin-2-amine], with 100 to 1000 nM. The same measure, in the same setting: as for `Fc1cnc(Nc2nc3c(s2)CCN(CC2CCNCC2)c2[nH]ncc2-3)nc1` [Compound 1-78, N-(5-Fluoropyrimidin-2-yl)-6-(piperidin-4-ylmethyl)-4,5,6,7-tetrahydropyrazolo[3,4-b]thiazolo[4,5-d]azepin-2-amine], the figure is 1000 to 10000 nM; as for `COCCN1CCc2sc(Nc3nccc(C)n3)nc2-c2c[nH]nc21` [Compound 1-7, 6-(2-Methoxyethyl)-N-(4-methylpyrimidin-2-yl)-4,5,6,8-tetrahydropyrazolo[3,4-b]thiazolo[4,5-d]azepin-2-amine], under 100 nM; as for `Cn1cnc(CN2CCc3sc(Nc4ncc(F)cn4)nc3-c3cn[nH]c32)c1` [Compound 1-80, N-(5-Fluoropyrimidin-2-yl)-6-((1-methyl-1H-imidazol-4-yl)methyl)-4,5,6,7-tetrahydropyrazolo[3,4-b]thiazolo[4,5-d]azepin-2-amine], 100 to 1000 nM. As to `Fc1cnc(Nc2nc3c(s2)CCN(C2CCC2)c2[nH]ncc2-3)nc1` [Compound 1-82, 6-Cyclobutyl-N-(5-fluoropyrimidin-2-yl)-4,5,6,7-tetrahydropyrazolo[3,4-b]thiazolo[4,5-d]azepin-2-amine], the EC50 is 1000 to 10000 nM. Still for that read-out and setting: as for `COCCN1CCc2sc(Nc3ncc(F)cn3)nc2-c2c[nH]nc21` [Compound 1-12, N-(5-Fluoropyrimidin-2-yl)-6-(2-methoxyethyl)-4,5,6,8-tetrahydropyrazolo[3,4-b]thiazolo[4,5-d]azepin-2-amine], the figure is under 100 nM; as for `Cc1ccnc(Nc2nc3c(s2)CCN(CC(=O)N(C)C)c2n[nH]cc2-3)n1` [Compound 1-17, N,N-Dimethyl-2-(2-(4-methylpyrimidin-2-ylamino)-4,5-dihydropyrazolo[3,4-b]thiazolo[4,5-d]azepin-6(8H)-yl)acetamide], 100 to 1000 nM. Same read-out and setting: then `COCCN1CC(C)c2sc(Nc3ncc(F)cn3)nc2-c2cn[nH]c21` (centres unmarked) [Compound 1-84, N-(5-Fluoropyrimidin-2-yl)-6-(2-methoxyethyl)-4-methyl-4,5,6,7-tetrahydropyrazolo[3,4-b]thiazolo[4,5-d]azepin-2-amine], with 100 to 1000 nM; and `CC(C)N1CCc2sc(Nc3ncc(F)cn3)nc2-c2c[nH]nc21` [Compound 1-6, N-(5-Fluoropyrimidin-2-yl)-6-isopropyl-4,5,6,8-tetrahydropyrazolo[3,4-b]thiazolo[4,5-d]azepin-2-amine], with under 100 nM.
